Source: the supplement of paper PMC13380429

Legend:
Settings in all cases: 72 h
Calu-3 [1] = experiment: relative viability EC50 (midpoint between 100% and the lowest measured viability); higher = less toxic
Caco-2 [2] = experiment: as above
HepG2 [3] = experiment: as above
Vero E6 [4] = experiment: as above
U2OS [5] = experiment: as above
Calu-3 [6] = experiment: cell viability relative to DMSO; higher = less toxic
Caco-2 [7] = experiment: as above
HepG2 [8] = experiment: as above
Vero E6 [9] = experiment: as above
U2OS [10] = experiment: as above
Calu-3 [11] = experiment: drug sensitivity score (DSS) for viability; higher = more toxic; extreme values may be limits of the assay
Caco-2 [12] = experiment: as above
HepG2 [13] = experiment: as above
Vero E6 [14] = experiment: as above
U2OS [15] = experiment: as above

Compound | relative viability EC50 (Calu-3 [1]) [µM] | relative viability EC50 (Caco-2 [2]) [µM] | relative viability EC50 (HepG2 [3]) [µM] | relative viability EC50 (Vero E6 [4]) [µM] | relative viability EC50 (U2OS [5]) [µM] | cell viability (Calu-3 [6]; 1 nM) [%] | cell viability (Calu-3 [6]; 10 nM) [%] | cell viability (Calu-3 [6]; 100 nM) [%] | cell viability (Calu-3 [6]; 1000 nM) [%] | cell viability (Calu-3 [6]; 10000 nM) [%] | cell viability (Caco-2 [7]; 1 nM) [%] | cell viability (Caco-2 [7]; 10 nM) [%] | cell viability (Caco-2 [7]; 100 nM) [%] | cell viability (Caco-2 [7]; 1000 nM) [%] | cell viability (Caco-2 [7]; 10000 nM) [%] | cell viability (HepG2 [8]; 1 nM) [%] | cell viability (HepG2 [8]; 10 nM) [%] | cell viability (HepG2 [8]; 100 nM) [%] | cell viability (HepG2 [8]; 1000 nM) [%] | cell viability (HepG2 [8]; 10000 nM) [%] | cell viability (Vero E6 [9]; 1 nM) [%] | cell viability (Vero E6 [9]; 10 nM) [%] | cell viability (Vero E6 [9]; 100 nM) [%] | cell viability (Vero E6 [9]; 1000 nM) [%] | cell viability (Vero E6 [9]; 10000 nM) [%] | cell viability (U2OS [10]; 1 nM) [%] | cell viability (U2OS [10]; 10 nM) [%] | cell viability (U2OS [10]; 100 nM) [%] | cell viability (U2OS [10]; 1000 nM) [%] | cell viability (U2OS [10]; 10000 nM) [%] | drug sensitivity score (Calu-3 [11]) | drug sensitivity score (Caco-2 [12]) | drug sensitivity score (HepG2 [13]) | drug sensitivity score (Vero E6 [14]) | drug sensitivity score (U2OS [15])
CC(=O)N[C@@H](CSSC[C@H](NC(C)=O)C(=O)O)C(=O)O [D-7193] | > 10 | > 10 | > 10 | > 10 | > 10 | 93.5 | 83.4 | 103 | 95.6 | 110 | 100 | 96.1 | 104 | 92 | 100 | 108 | 88.5 | 108 | 98.9 | 98 | 107 | 106 | 100 | 103 | 99.2 | 95.1 | 96.2 | 98.6 | 98.2 | 101 | 0 | 0 | 0 | 0 | 0
CC(C)N(C[C@H]1O[C@@H](n2cnc3c(N)ncnc32)[C@H](O)[C@@H]1O)[C@H]1C[C@@H](CCc2nc3cc(C(C)(C)C)ccc3[nH]2)C1 [EPZ-5676] | > 10 | > 10 | > 10 | > 10 | > 10 | 101 | 102 | 95.4 | 104 | 104 | 90.7 | 99.2 | 100 | 97.1 | 101 | 106 | 94.9 | 89.7 | 105 | 108 | 106 | 106 | 98.9 | 102 | 106 | 105 | 97.5 | 101 | 102 | 111 | 0 | 0 | 0 | 0 | 0
Cc1cccc(-c2[nH]c(CNc3ccccc3F)nc2-c2ccc3ncnn3c2)n1 [EW-7197] | > 10 | > 10 | > 10 | > 10 | > 10 | 97.3 | 88.4 | 96.9 | 114 | 105 | 95.7 | 96.4 | 94.1 | 109 | 99.4 | 95.1 | 104 | 106 | 103 | 93.3 | 102 | 105 | 102 | 95.4 | 98.7 | 99.1 | 99.4 | 94.4 | 95.5 | 85.5 | 0 | 0 | 0 | 0 | 0.1
O=C(NCCN1CCC(n2c(=O)[nH]c3ccccc32)CC1)c1cc2cc(F)ccc2[nH]1 [FIPI] | > 10 | > 10 | > 10 | > 10 | > 10 | 92.2 | 101 | 99.8 | 98 | 96.8 | 95.7 | 101 | 100 | 101 | 106 | 90.7 | 110 | 98.2 | 93.7 | 91.1 | 95 | 95.9 | 99 | 96.6 | 103 | 97 | 94 | 100 | 97.4 | 94.8 | 0 | 0 | 0 | 0 | 0
C/C(O)=C(\C#N)C(=O)Nc1cc(Br)ccc1Br [LFM-A13] | > 10 | > 10 | > 10 | > 10 | > 10 | 92.8 | 99.6 | 103 | 100 | 94.7 | 99.6 | 99.5 | 90.1 | 100 | 92.1 | 105 | 99.7 | 99.5 | 99 | 101 | 112 | 80.5 | 99 | 96.3 | 105 | 102 | 103 | 97.3 | 104 | 96.4 | 0 | 0 | 0 | 0 | 0
O=C(NCCN1CCCCC1)c1ccc(I)cc1 [N-[2-(piperidinylamino)ethyl]-4-iodobenzamide] | > 10 | > 10 | > 10 | > 10 | > 10 | 101 | 89.4 | 94.6 | 92.7 | 116 | 96.4 | 99.6 | 105 | 92.1 | 91.2 | 103 | 91.8 | 103 | 99.1 | 91.3 | 101 | 99.6 | 96.5 | 99.3 | 93.4 | 103 | 97.5 | 97 | 91.3 | 95.5 | 0 | 0 | 0 | 0 | 0
O=C(NCc1ccc(OC(F)(F)F)cc1)C1c2ccccc2C(=O)N1C1CCOCC1 (stereo not given) [NAV-26] | > 10 | > 10 | > 10 | > 10 | > 10 | 103 | 97.6 | 93.8 | 99.5 | 100 | 100 | 90.6 | 105 | 96.8 | 99.2 | 107 | 91.6 | 96.7 | 112 | 112 | 95.7 | 101 | 88.7 | 98.9 | 107 | 99.3 | 94.5 | 99 | 95.9 | 91 | 0 | 0 | 0 | 0 | 0
